The target of one data set is T1, HCMV polymerase (Human cytomegalovirus, UniProt P08546).
T1 construct: made in house; host or cells: recombinant baculovirus-infected SF-9 cells
The experiment in a line: biochemical. The method, then: The HCMV polymerase assay is performed using a scintillation proximity assay (SPA) as described in several references, such as N. D. Cook, et al., Pharmaceutical Manufacturing International, pages 49-53 (1992); K. Takeuchi, Laboratory Practice, September issue (1992); U.S. Pat. No. 4,568,649 (1986); which are incorporated by reference herein. Reactions are performed in 96-well plates. The assay is conducted in 100 μl volume with 5.4 mM HEPE (pH 7.5), 11.7 mM KCl, 4.5 mM MgCl2, 0.36 mg/ml BSA, and 90 nM ^3H-dTTP. Assays are run with and without CHAPS, (3-[(3-cholamidopropyl)-dimethylammonio]-1-propane-sulfonate) at a final concentration of 2 mM. HCMV polymerase is diluted in enzyme dilution buffer containing 50% glycerol, 250 mM NaCl, 10 mM HEPES (pH 7.5), 100 μg/ml BSA, and 0.01% sodium azide. The HCMV polymerase, which is expressed in recombinant baculovirus-infected SF-9 cells and purified according to literature procedures, is added at 10% (or 10 μl) of the final reaction volume, i.e., 100 μl. Compounds are diluted in 50% DMSO and 10 μl are added to each well. Control wells contain an equivalent concentration of DMSO. Unless noted otherwise, reactions are initiated via the addition of 6 nM biotinylated poly(dA)-oligo(dT) template/primer to reaction mixtures containing the enzyme, substrate, and compounds of interest. Plates are incubated in a 25 C or 37 C H2O bath and terminated via the addition of 40 μl/reaction of 0.5 M EDTA (pH 8) per well. Reactions are terminated within the time-frame during which substrate incorporation is linear and varied depending upon the enzyme and conditions used, i.e., 30 min. for HCMV polymerase. Ten μl of streptavidin-SPA beads (20 mg/ml in PBS/10% glycerol) are added following termination of the reaction. Plates are incubated 10 min. at 37 ° C., then equilibrated to room temperature, and counted on a Packard Topcount. Linear regressions are performed and IC50's are calculated using computer software.
A modified version of the above HCMV polymerase assay is performed as described above, but with the following changes: Compounds are diluted in 100% DMSO until final dilution into assay buffer. In the previous assay, compounds are diluted in 50% DMSO. 4.5 mM dithiothreotol (DTT) is added to the polymerase buffer.

Setting [1] is: modified SPA assay: compounds diluted in 100% DMSO, 4.5 mM DTT in polymerase buffer, read-out: polymerase IC50 (μM) HCMV.

Experimental findings from patent US6495683B2, “4-oxo-4,7-dihydro-thieno[2,3-b]pyridine-5-carboxamides as antiviral agents” (Pharmacia and Upjohn Company, priority 1999, dated 2002) are described below.

Structures are written as SMILES. Read-outs that look alike come from different tables or passages of the source.

In general, IC50 refers to the midpoint of a concentration-inhibition curve. One may read the melting point as the temperature of the solid-liquid transition.

T1 sequence (P08546 whole entry): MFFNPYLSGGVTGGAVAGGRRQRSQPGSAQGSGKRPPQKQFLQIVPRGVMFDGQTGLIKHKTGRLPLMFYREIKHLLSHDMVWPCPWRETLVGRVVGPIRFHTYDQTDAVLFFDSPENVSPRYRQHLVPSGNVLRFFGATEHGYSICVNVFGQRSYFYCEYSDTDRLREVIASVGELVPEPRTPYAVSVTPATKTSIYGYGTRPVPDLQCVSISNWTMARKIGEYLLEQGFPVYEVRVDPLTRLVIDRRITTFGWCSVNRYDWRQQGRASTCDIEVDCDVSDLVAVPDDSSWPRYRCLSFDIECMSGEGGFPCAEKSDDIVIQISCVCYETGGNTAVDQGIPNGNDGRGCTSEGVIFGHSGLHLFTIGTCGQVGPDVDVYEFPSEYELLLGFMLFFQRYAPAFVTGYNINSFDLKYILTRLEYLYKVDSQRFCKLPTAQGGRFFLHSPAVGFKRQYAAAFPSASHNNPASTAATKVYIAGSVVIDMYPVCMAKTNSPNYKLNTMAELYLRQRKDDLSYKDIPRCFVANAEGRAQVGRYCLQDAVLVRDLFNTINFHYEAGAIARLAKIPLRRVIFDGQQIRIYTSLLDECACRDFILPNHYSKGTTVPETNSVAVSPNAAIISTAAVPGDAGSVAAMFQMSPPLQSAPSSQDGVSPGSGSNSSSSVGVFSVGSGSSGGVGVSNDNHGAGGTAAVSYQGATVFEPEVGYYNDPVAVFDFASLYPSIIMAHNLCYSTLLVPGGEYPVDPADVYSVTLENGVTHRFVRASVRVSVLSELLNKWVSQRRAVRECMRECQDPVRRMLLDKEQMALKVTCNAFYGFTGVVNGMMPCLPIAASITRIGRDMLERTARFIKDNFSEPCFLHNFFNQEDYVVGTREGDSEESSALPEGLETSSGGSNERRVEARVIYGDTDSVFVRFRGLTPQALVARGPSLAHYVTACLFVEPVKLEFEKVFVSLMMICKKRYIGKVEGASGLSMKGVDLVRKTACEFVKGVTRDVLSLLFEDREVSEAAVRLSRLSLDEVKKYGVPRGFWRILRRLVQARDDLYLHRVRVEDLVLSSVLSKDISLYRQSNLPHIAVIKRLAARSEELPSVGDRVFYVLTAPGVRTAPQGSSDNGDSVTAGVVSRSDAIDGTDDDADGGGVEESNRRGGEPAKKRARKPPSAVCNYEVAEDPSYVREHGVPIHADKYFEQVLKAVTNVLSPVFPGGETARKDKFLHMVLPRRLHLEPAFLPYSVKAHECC

`CCn1cc(C(=O)NCc2ccc(Cl)cc2)c(=O)c2cc(C#CCOC(=O)CCC(=O)O)sc21` [Example 29, 4-{[3-(5-{[(4-Chlorobenzyl)amino]carbonyl}-7-ethyl-4-oxo-4,7-dihydrothieno[2,3-b]pyridin-2-yl)-2-propynyl]oxy}-4-oxobutanoic Acid] came in with a melting point of 180 to 182 °C. Further, on HCMV polymerase (setting [1]), the IC50 turned out to be 6.5 µM.
Regarding `CCn1cc(C(=O)NCc2ccc(Cl)cc2)c(=O)c2cc(C#CCOC(=O)CN3CCOCC3)sc21` [Example 30, 3-(5-{[(4-Chlorobenzyl)amino]carbonyl}-7-ethyl-4-oxo-4,7-dihydrothieno[2,3-b]pyridin-2-yl)-2-propynyl 2-(4-Morpholinyl)acetate], the melting point fell in the range of 168 to 170 °C. Besides, the concentration for half-maximal inhibition (IC50) on HCMV polymerase (setting [1]) was 28.2 µM.
On to `CCn1cc(C(=O)NCc2ccc(Cl)cc2)c(=O)c2cc(C#CCOC(=O)c3cccc(CN4CCOCC4)c3)sc21` [Example 32, 3-(5-{[(4-Chlorobenzyl)amino]carbonyl}-7-ethyl-4-oxo-4,7-dihydrothieno[2,3-b]pyridin-2-yl)-2-propynyl 3-(4-Morpholinylmethyl)benzoate], for which the melting point is 147 to 150 °C. Besides, on HCMV polymerase (setting [1]), the half-inhibitory concentration (IC50) was more than 50 µM.
`COC(=O)c1cc2c(O)c(C(=O)NCc3ccc(Cl)cc3)cnc2s1` [Example 33, Methyl 5-{[(4-Chlorobenzyl)amino]carbonyl}-4-hydroxythieno[2,3-b]pyridine-2-carboxylate] gave a melting point of 238 to 240 °C. Moreover, the IC50 on HCMV polymerase (setting [1]) was found to be 22.4 µM.
The corresponding values for `O=C(NCc1ccc(Cl)cc1)c1cnc2sc(CO)cc2c1O` [Example 34, N-(4-Chlorobenzyl)-4-hydroxy-2-(hydroxymethyl)thieno[2,3-b]pyridine-5-carboxamide] are 205 to 210 °C and more than 20 µM.
Take `Cn1cc(C(=O)NCc2ccc(Cl)cc2)c(=O)c2cc(CO)sc21` [Example 35, N-(4-Chlorobenzyl)-2-(hydroxymethyl)-7-methyl-4-oxo-4,7-dihydrothieno[2,3-b]pyridine-5-carboxamide]: the melting point fell in the range of 222 to 225 °C. The IC50 on HCMV polymerase (setting [1]) stood at 18.5 µM.
The corresponding values for `Cn1cc(C(=O)NCc2ccc(Cl)cc2)c(=O)c2cc(CN3CCSCC3)sc21` [Example 38, N-(4-Chlorobenzyl)-7-methyl-4-oxo-2-(4-thiomorpholinyl-methyl)-4,7-dihydrothieno[2,3-b]pyridine-5-carboxamide] are 215 to 218 °C (dec.) and 2.6 µM.
The molecule `CN(Cc1cc2c(=O)c(C(=O)NCc3ccc(Cl)cc3)cn(C)c2s1)CC(O)c1ccc(O)cc1` (stereo not drawn) [Example 39, N-(4-Chlorohenzyl)-2-(((2-hydroxy-2-(4-hydroxyphenyl)ethyl)(methyl)amino)methyl)-7-methyl-4-oxo-4,7-dihydrothieno[2,3-b]pyridine-5-carboxamide] showed a melting point of 187 °C. Moreover, the IC50 on HCMV polymerase (setting [1]) is less than 0.31 µM.
The corresponding values for `CN(Cc1cc2c(=O)c(C(=O)NCc3ccc(Cl)cc3)cn(C)c2s1)CC(O)c1ccccc1` (stereo not drawn) [Example 40, N-(4-Chlorobenzyl)-2-(((2-hydroxy-2-phenylethyl)(methyl)-amino)methyl)-7-methyl-4-oxo-4,7-dihydrothieno[2,3-b]pyridine-5-carboxamide] are 184 to 187 °C and less than 0.31 µM.
`O=C(NCc1ccc(Cl)cc1)c1cnc2sc(CN3CCOCC3)cc2c1O` [Example 41, N-(4-Chlorobenzyl)-4-hydroxy-2-(4-morpholinylmethyl)-thieno[2,3-b]pyridine-5-carboxamide]: the melting point was 193 to 195 °C. Half-maximal inhibition at HCMV polymerase (IC50) required 3.4 µM.
For the molecule `CCn1cc(C(=O)NCc2ccc(Cl)cc2)c(=O)c2cc(CN3CCOCC3)sc21` [Example 42, N-(4-Chlorobenzyl)-7-ethyl-2-(4-morpholinylmethyl)-4-oxo-4,7-dihydrothieno[2,3-b]pyridine-5-carboxamide], the melting point lay in the range of 194 to 196 °C. Also, the 50% inhibitory concentration (IC50) at HCMV polymerase (setting [1]) is 1.9 µM.
The corresponding values for `CCCn1cc(C(=O)NCc2ccc(Cl)cc2)c(=O)c2cc(CN3CCOCC3)sc21` [Example 43, N-(4-Chlorobenzyl)-2-(4-morpholinylmethyl)-4-oxo-7-propyl-4,7dihydrothieno[2,3-b]pyridine-5-carboxamide] are 174 to 176 °C and 1.9 µM.
As to `CC(C)n1cc(C(=O)NCc2ccc(Cl)cc2)c(=O)c2cc(CN3CCOCC3)sc21` [Example 44, N-(4-Chlorobenzyl)-7-isopropyl-2-(4-morpholinylmethyl)-4-oxo-4,7-dihydrothieno[2,3-b]pyridine-5-carboxamide], the melting point was in the range of 191 to 195 °C. The IC50 at HCMV polymerase (setting [1]) stood at 4.7 µM.
Molecule `Cn1cc(C(=O)NCc2ccc(F)cc2)c(=O)c2cc(CN3CCOCC3)sc21` [Example 45, N-(4-Fluorobenzyl)-7-methyl-2-(4-morpholinylmethyl)-4-oxo-4,7-dihydrothieno[2,3-b]pyridine-5-carboxamide] yielded a melting point of 214 to 216 °C. For the same molecule, at HCMV polymerase (setting [1]), the IC50 was 2.6 µM.
Regarding `Cn1cc(C(=O)NCc2ccc(Br)cc2)c(=O)c2cc(CN3CCOCC3)sc21` [Example 46, N-(4-Bromobenzyl)-7-methyl-2-(4-morpholinylmethyl)-4-oxo-4,7-dihydrothieno[2,3-b]pyridine-5-carboxamide], the melting point lay in the range of 245 to 246 °C. Further, at HCMV polymerase (setting [1]), the IC50 was determined as 3.8 µM.
Molecule `O=C(NCc1ccc(Cl)cc1)c1cnc2sc(C(=O)N3CCOCC3)cc2c1O` [Example 47, N-(4-Chlorobenzyl)-4-hydroxy-2-(4-morpholinyl-carbonyl)-thieno[2,3-b]pyridine-5-carboxamide] yielded a melting point of 217 to 219 °C. At HCMV polymerase (setting [1]), the IC50 is more than 20 µM.
As for `Cn1cc(C(=O)NCc2ccc(Cl)cc2)c(=O)c2cc(C(=O)N3CCOCC3)sc21` [Example 48, N-(4-Chlorobenzyl)-7-methyl-2-(4-morpholinyl-carbonyl)-4 dothieno[2,3-b]pyridine-5-carboxamide], the melting point was 244 to 245 °C (dec.). The IC50 on HCMV polymerase (setting [1]) amounted to 19 µM.
`O=C(NCc1ccc(Cl)cc1)c1cn(Cc2ccccc2)c2sc(CN3CCOCC3)cc2c1=O` [Example 49, 7-Benzyl-N-(4-chlorobenzyl)-2-(4-morpholinylmethyl)-4-oxo-4,7-dihydrothieno[2,3-b]pyridine-5-carboxamide] showed a melting point of 225 to 226.5 °C. Moreover, the IC50 at HCMV polymerase (setting [1]) turned out to be 3.2 µM.
For the molecule `O=C(NCc1ccc(Cl)cc1)c1cn(Cc2cccc(F)c2)c2sc(CN3CCOCC3)cc2c1=O` [Example 50, N-(4-Chlorobenzyl)-7-(3-fluorobenzyl)-2-(4-morpholinyl-methyl)-4-oxof47-dihydrothieno[2,3-b]pyridine-5-carboxamide], the melting point fell in the range of 214 to 215 °C. For the same molecule, at HCMV polymerase (setting [1]), the IC50 was determined as 3.8 µM.
The corresponding values for `O=C(NCc1ccc(Cl)cc1)c1cn(CCCc2ccccc2)c2sc(CN3CCOCC3)cc2c1=O` [Example 51, N-(4-Chlorobenzyl)-2-(4-morpholinylmethyl)-4-oxo-7-(3-phenylpropyl)-4,7-dihydrothieno[2,3-b]pyridine-5-carboxamide] are 169 to 171 °C and 1.2 µM.
In turn, `O=C(NCc1ccc(Cl)cc1)c1cn(CC2CCCO2)c2sc(CN3CCOCC3)cc2c1=O` (stereo not drawn) [Example 52] registered a melting point of 191 to 195 °C. Besides, the IC50 on HCMV polymerase (setting [1]) came out at 1.5 µM.
The molecule `O=C(NCc1ccc(Cl)cc1)c1cn(CCN2CCCC2)c2sc(CN3CCOCC3)cc2c1=O` [Example 53, N-(4-Chlorobenzyl)-2-(4-morpholinylmethyl)-4-oxo-7-[2-(1-pyrrolidinyl)ethyl]-4,7-dihydrothieno[2,3-b]pyridine-5-carboxamide] gave a melting point of 178 to 180 °C. In addition, the IC50 at HCMV polymerase (setting [1]) came out at 4 µM.
As for `O=C(NCc1ccc(Cl)cc1)c1cn(Cc2cccnc2)c2sc(CN3CCOCC3)cc2c1=O` [Example 54, N-(4-Chlorobenzyl)-2-(4-morpholinylmethyl)-4-oxo-7-(3-pyridinylmethyl)-4,7-dihydrothieno[2,3-b]pyridine-5-carboxamide], the melting point was 214 to 215 °C. The IC50 on HCMV polymerase (setting [1]) was 3.2 µM.
Turning to `O=C(NCc1ccc(Cl)cc1)c1cn(Cc2ccncc2)c2sc(CN3CCOCC3)cc2c1=O` [Example 55, N-(4-Chlorobenzyl)-2-(4-morpholinylmethyl)-4-oxo-7-(4-pyridinylmethyl)-4,7-dihydrothieno[2,3-b]pyridine-5-carboxamide], the melting point was 208 to 210 °C (dec.). The IC50 on HCMV polymerase (setting [1]) came out at 5 µM.
